According to patent US12600709B2, “Nonpeptide somatostatin type 5 receptor agonists and uses thereof” (Crinetics Pharmaceuticals, Inc., priority 2019, dated 2026):
Like-named read-outs stand apart in the source and are kept apart here.

Columns and labels:
[1] = biological target: T1, human somatostatin receptor subtype 2 (Homo sapiens, UniProt P30874); experiment: cAMP assay for SST2R (inhibition of cAMP in CHO-K1 cells); format: cell-based; details: Table B; inhibition of cAMP via human SST2 receptor; read-out: SST2 potency
T1 construct: expressed in transfected cells
Summary of the method: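 CHO-K1 cells stably expressing human SSTR2, plated 4 days prior, treated 20 min at 37° C with 1.6 μM NKH477 plus compound dilutions in HBSS/HEPES pH 7.4/0.1% BSA/0.2 mM IBMX. Lysate cAMP measured by HTRF against standard curve; EC50 from concentration-response.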

[2] = biological target: T2, human somatostatin receptor subtype 5 (Homo sapiens, UniProt P35346); experiment: cAMP assay for SST5R (inhibition of cAMP in CHO-K1 cells); format: cell-based; details: for EC50: inhibition of cAMP via human SST5 receptor, read-out: SST5 potency; for Fold selectivity for SST5 vs SST2: class symbols, SST5 receptor over SST2 receptor
T2 construct: expressed in transfected cells
Summary of the method: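 CHO-K1 cells stably expressing human SSTR5 were treated 20 min at 37 °C with compounds plus 1.6 μM NKH477 in HBSS, 0.5 mM HEPES pH 7.4, 0.1% BSA, 0.2 mM IBMX. Lysate cAMP measured by HTRF against a standard curve; EC50 from cAMP-versus-concentration plots.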

T2 sequence (P35346 whole entry): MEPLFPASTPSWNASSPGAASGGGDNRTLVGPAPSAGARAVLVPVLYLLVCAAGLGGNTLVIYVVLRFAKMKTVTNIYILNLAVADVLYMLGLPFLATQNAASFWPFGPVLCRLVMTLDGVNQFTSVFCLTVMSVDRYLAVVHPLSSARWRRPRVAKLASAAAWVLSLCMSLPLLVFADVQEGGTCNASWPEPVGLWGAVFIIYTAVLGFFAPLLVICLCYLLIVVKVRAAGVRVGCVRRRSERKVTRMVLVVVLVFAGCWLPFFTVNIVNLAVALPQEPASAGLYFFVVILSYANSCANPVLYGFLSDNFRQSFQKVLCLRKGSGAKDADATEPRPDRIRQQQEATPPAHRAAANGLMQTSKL
T1 sequence (P30874 whole entry): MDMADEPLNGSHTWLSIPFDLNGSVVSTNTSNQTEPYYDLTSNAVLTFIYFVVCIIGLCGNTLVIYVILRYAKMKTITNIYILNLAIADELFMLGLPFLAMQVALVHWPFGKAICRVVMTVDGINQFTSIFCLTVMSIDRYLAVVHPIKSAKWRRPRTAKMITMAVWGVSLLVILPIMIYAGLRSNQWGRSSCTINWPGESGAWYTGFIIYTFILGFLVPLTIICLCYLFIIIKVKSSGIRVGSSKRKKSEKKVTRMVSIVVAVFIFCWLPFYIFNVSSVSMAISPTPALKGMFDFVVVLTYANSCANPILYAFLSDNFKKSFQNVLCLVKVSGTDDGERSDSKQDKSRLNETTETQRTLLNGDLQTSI

Structure (SMILES) | EC50 [1] [nM] | EC50 ([2]; Table A) [nM] | Fold selectivity for SST5 vs SST2 ([2]; Table B) | EC50 ([2]; Table B) [nM]
N#Cc1ncc(C(=O)NC2CC(F)(F)C2)c(N2CC[C@H](N)C2)c1-c1cc(F)cc(F)c1 [1-68, 4-[(3S)-3-aminopyrrolidin-1-yl]-6-cyano-N-(3,3-difluorocyclobutyl)-5-(3,5-difluorophenyl)pyridine-3-carboxamide] | > 1000 | < 10 | +++ (+++=>500) | < 10
Cc1ncc(C(=O)N[C@@H](C)C2CC2)c(N2CC[C@](C)(N)C2)c1-c1cc(F)cc(C#N)c1 [1-123, 4-[(3S)-3-amino-3-methylpyrrolidin-1-yl]-5-(3-cyano-5-fluorophenyl)-N-[(1S)-1-cyclopropylethyl]-6-methylpyridine-3-carboxamide] | 100 to 1000 | < 10 | +++ (+++=>500) | < 10
Cc1ncc(C(=O)NCc2ccon2)c(N2CC[C@](C)(N)C2)c1-c1cc(F)cc(Cl)c1 [1-242, 4-[(3S)-3-amino-3-methylpyrrolidin-1-yl]-5-(3-chloro-5-fluorophenyl)-6-methyl-N-[(1,2-oxazol-3-yl)methyl]pyridine-3-carboxamide] | > 1000 | < 10 | +++ (+++=>500) | < 10
C[C@H](NC(=O)c1cnc(OCCC(=O)O)c(-c2cc(F)cc(F)c2)c1N1CC[C@](C)(N)C1)C1CC1 [1-264, 3-({4-[(3S)-3-amino-3-methylpyrrolidin-1-yl]-5-{[(1S)-1-cyclopropylethyl]carbamoyl}-3-(3,5-difluorophenyl)pyridin-2-yl}oxy)propanoic acid] | > 1000 | < 10 | +++ (+++=>500) | < 10
C[C@]1(N)CCN(c2c(C(=O)NC34CC(F)(C3)C4)cnc(C#N)c2-c2cc(F)cc(F)c2)C1 [1-234, 4-[(3S)-3-amino-3-methylpyrrolidin-1-yl]-6-cyano-5-(3,5-difluorophenyl)-N-{3-fluorobicyclo[1.1.1]pentan-1-yl}pyridine-3-carboxamide] | 100 to 1000 | < 10 | +++ (+++=>500) | < 10
CCCCNC(=O)c1cnc(C#N)c(-c2ccnc(OC)c2)c1N1CC[C@](C)(N)C1 [1-271] | > 1000 | < 10 | +++ (+++=>500) | < 10
C[C@]1(N)CCN(c2c(C(=O)NCC(F)(F)F)cnc(C#N)c2-c2cc(F)cc(F)c2)C1 [1-92, 4-[(3S)-3-amino-3-methylpyrrolidin-1-yl]-6-cyano-5-(3,5-difluorophenyl)-N-(2,2,2-trifluoroethyl)pyridine-3-carboxamide] | 100 to 1000 | < 10 | +++ (+++=>500) | < 10
COc1ncc(C(=O)NC23CC(F)(C2)C3)c(N2CC[C@](C)(N)C2)c1-c1cc(F)cc(F)c1 [1-273, 4-[(3S)-3-amino-3-methylpyrrolidin-1-yl]-5-(3,5-difluorophenyl)-N-{3-fluorobicyclo[1.1.1]pentan-1-yl}-6-methoxypyridine-3-carboxamide] | 100 to 1000 | < 10 | +++ (+++=>500) | < 10
Cc1cc(C)cc(-c2cncc(C(=O)NC3CCC(F)(F)CC3)c2N2CC[C@](C)(N)C2)c1 [1-12, 4-[(3S)-3-amino-3-methylpyrrolidin-1-yl]-N-(4,4-difluorocyclohexyl)-5-(3,5-dimethylphenyl)pyridine-3-carboxamide] | 100 to 1000 | < 10 | +++ (+++=>500) | < 10
C[C@]1(N)CCN(c2c(C(=O)NCc3ccccc3O)cnc(C#N)c2-c2cc(F)cc(F)c2)C1 [1-115, 4-[(3S)-3-amino-3-methylpyrrolidin-1-yl]-6-cyano-5-(3,5-difluorophenyl)-N-[(2-hydroxyphenyl)methyl]pyridine-3-carboxamide] | > 1000 | < 10 | +++ (+++=>500) | < 10
N#Cc1ncc(C(=O)NC23CC(C2)C3)c(N2CC[C@H](N)C2)c1-c1cc(F)cc(F)c1 [1-64, 4-[(3S)-3-aminopyrrolidin-1-yl]-N-{bicyclo[1.1.1]pentan-1-yl}-6-cyano-5-(3,5-difluorophenyl)pyridine-3-carboxamide] | > 1000 | < 10 | +++ (+++=>500) | < 10
COc1ncc(C(=O)N[C@@H](C)C2CC2)c(N2CC[C@](C)(N)C2)c1-c1ccnc(C(F)(F)F)c1 [1-166, 4-[(3S)-3-amino-3-methylpyrrolidin-1-yl]-N-[(1S)-1-cyclopropylethyl]-2-methoxy-2′-(trifluoromethyl)-[3,4′-bipyridine]-5-carboxamide] | > 1000 | < 10 | +++ (+++=>500) | < 10
Cc1ncc(C(=O)N[C@@H](C)C(F)(F)F)c(N2CC[C@](C)(N)C2)c1-c1ccc(F)c(Cl)c1 [1-287, 4-[(3S)-3-amino-3-methylpyrrolidin-1-yl]-5-(3-chloro-4-fluorophenyl)-6-methyl-N-[(2S)-1,1,1-trifluoropropan-2-yl]pyridine-3-carboxamide] | 10 to 100 | < 10 | +++ (+++=>500) | < 10
COc1ncc(C(=O)N[C@@H](C)c2ccccn2)c(N2CC[C@](C)(N)C2)c1-c1cc(F)cc(Cl)c1 [1-240, 4-[(3S)-3-amino-3-methylpyrrolidin-1-yl]-5-(3-chloro-5-fluorophenyl)-6-methoxy-N-[(1S)-1-(pyridin-2-yl)ethyl]pyridine-3-carboxamide] | 100 to 1000 | < 10 | +++ (+++=>500) | < 10
Cc1cc(F)cc(-c2cncc(C(=O)NC(C)C3CC3)c2N2CC[C@](C)(N)C2)c1 (stereo partly drawn) [1-24, 4-[(3S)-3-amino-3-methylpyrrolidin-1-yl]-N-(1-cyclopropylethyl)-5-(3-fluoro-5-methylphenyl)pyridine-3-carboxamide] | 10 to 100 | < 10 | +++ (+++=>500) | < 10
C[C@H](NC(=O)c1cnc(C#N)c(-c2cc(F)cc(F)c2)c1N1C[C@@H](N)[C@H](F)C1)C1CC1 [1-135, 4-[(3R,4R)-3-amino-4-fluoropyrrolidin-1-yl]-6-cyano-N-[(1S)-1-cyclopropylethyl]-5-(3,5-difluorophenyl)pyridine-3-carboxamide] | 100 to 1000 | < 10 | +++ (+++=>500) | < 10
Cc1cccc2[nH]c(-c3cncc(C(=O)N[C@@H](C)C(F)(F)F)c3N3CC[C@](C)(N)C3)nc12 [2-11, 4-[(3S)-3-amino-3-methylpyrrolidin-1-yl]-5-(4-methyl-1H-1,3-benzodiazol-2-yl)-N-[(2S)-1,1,1-trifluoropropan-2-yl]pyridine-3-carboxamide] | 10 to 100 | < 10 | + (+=10 to 99) | < 10
COc1ncc(C(=O)N[C@@H](C)C2CC2)c(N2CC[C@](C)(N)C2)c1-c1cccc(OC(F)F)c1 [1-165, 4-[(3S)-3-amino-3-methylpyrrolidin-1-yl]-N-[(1S)-1-cyclopropylethyl]-5-[3-(difluoromethoxy)phenyl]-6-methoxypyridine-3-carboxamide] | 100 to 1000 | < 10 | +++ (+++=>500) | < 10
